Test results: patent US8580231B2, “Compositions and methods comprising magnetic resonance contrast agents” (Northwestern University, priority 2008, dated 2013)
Entries after “also recorded” stand apart in the source; their conditions may differ. Marks after values point to notes of the source that are not given here.

Experiments:
[1] = Biodistribution study (Gd(III) in organs by ICP-MS); type: in vivo, mouse; conditions: mice, organs harvested 30 minute to 24 hour
[2] = system: PR(+) (T47D) human breast cancer cells; assay: Cellular uptake studies (Example 17), PR(+) cells; type: cell-based; conditions: 0.125 mM for 1, 4, 10, 24 h or 0.25-2 mM for 4 h
Protocol: Contrast agents were dissolved in the appropriate medium (containing stripped FBS) for each cell line (T47D and MDA-MB-231) at concentrations of 2, 1, 0.5, 0.25, and 0.125 mM of contrast agent. For concentration-dependent cellular uptake, cells were incubated with 2, 1, 0.5, and 0.25 mM of each contrast agent for 4 h. For the time dependent cellular uptake, cells were incubated with 0.125 mM contrast agent for 1, 4, 10, and 24 h. After incubation, the media was removed, and the cells were rinsed twice with PBS and trypsinized. An aliquot was used for cell counting and the remaining portion was analyzed for Gd(III) content by ICP-MS. Each condition was done in triplicate.
To determine the cell permeability of the compounds, PR(+) (T47D) and PR(−) (MDA-MB-231) human breast cancer cells were incubated with 1a, 2a, 3a, and 4a. Time- and concentration-dependent experiments were performed to identify the optimal dose and incubation times of the agents (FIG. 16).

[3] = system: PR / pPRE-luciferase in T47D cells; assay: Luciferase assay for nPR activation; type: cell-based, human; conditions: 24 h
Protocol: T47D cells were grown in phenol-free medium, and cells were trypsinized and plated in 24-well plate (50 000 cells/well). Incubation of cells with the pPRE-luciferase plasmid (100 ng/well, construct provided by Dr. Ken Korach, NIEHS, NIH), RSV-β-galactosidase (100 ng/well, provided by Dr. William T. Beck, University of Illinois at Chicago), and Lipofectamine 2000 (1 μL per well, Invitrogen, Carlsbad, Calif.) in Opti-MEM was performed overnight at 37° C. inside a humidified incubator. The cells were treated with 1a, 2a, 3a, and 4a for an additional 24 h.
To measure luciferase production, cells were lysed in 100 μL GME buffer (25 mM glycylglycine at pH 7.8, 15 mM MgSO4, 4 mM EGTA, 1 mM dithiothreitol, and 1% Triton X-100) and lysates were added to assay buffer (GME buffer, 16.5 mM KPO4, 2.2 mM ATP, and 1.1 mM dithiothreitol). Luciferase substrate was injected followed by a 30 s read by a FLUOstar OPTIMA (BMG Lab Tech, Offenburg, Germany). LacZ activity (50 μL lysate) was measured from cleavage of ONPG. The sample results were normalized to β-galactosidase to account for transfection efficiency by dividing the sum of the luciferase activity by the sum of the β-galactosidase activity. Fold change was calculated by taking the luciferase value, dividing by the β-galactosidase activity, and then dividing by the solvent control, which was set equal to one. […]

[4] = system: PR(+) T47D and PR(−) MDA-MB-231 xenografted tumors; assay: In vivo MR imaging of xenografted nude mice (contrast-to-noise ratio); parameters: species or system mouse; conditions: for change in tumor CNR over preinjection levels: 2 and 6 h postinjection; for change in tumor CNR over preinjection levels / CNR of PR(+) tumor compared to PR(−) tumor: intraperitoneal; for CNR of PR(+) tumor compared to PR(−) tumor: 0.15 mmGd/kg in DMSO
Protocol: Female Balb/C athymic nude mice were acquired from Harlan (Indianapolis, Ind.) and housed under pathogen free conditions. All animal studies were conducted at Northwestern University in accordance with the National Institutes of Health Guide for the Care and Use of Laboratory Animals and established institutional animal use and care protocols. Due to low circulating estradiol levels in nude mice, a 17β-estradiol pellet (Innovative Research of America, Sarasota, FA, 70-day release, 0.72 mg/pellet) was implanted subcutaneously in the nape of the neck to ensure growth of estrogen-dependent T47D cells. Two to seven days later, T47D and MDA-MB-231 ((1−2)×10^6) cells were suspended in Matrigel (1:1 volume) and injected subcutaneously into the rear flank (T47D cells on the right side and MDA-MB-231 cells on the left). Mice were monitored for tumor growth every two to three days after injection of cells. Mice were imaged two to three weeks after xenografting when tumors were palpable with a minimum weight of 20 mg (determined after tumor removal postimaging).
Xenografted nude mice were injected intraperitoneally (n=1 per compound) with each agent (0.15 mmGd/kg) dissolved in 50 μL, DMSO. During imaging, mice were maintained under anesthesia (1-3% isoflurane) but were allowed to wake up and recover between imaging time points. Tubing containing heated water was positioned under the mouse to keep a constant body temperature. All MR imaging was performed on a 89 mm bore size PharmaScan 7.05 T MR imager fitted with shielded gradient coils (Bruker BioSpin, Billerica, Mass., USA) using a RF RES 300 1H 089/038 quadrature transmit receive volume coil (Bruker BioSpin, Billerica, Mass., USA). […] Images were analyzed using ImageJ. Contrast-to-noise ratio (CNR) was calculated using the equation CNR=(SITissue−SImuscle)/σnoise where SITumor is the signal intensity in the tumor, SIMuscle is the signal intensity in the muscle, and σnoise is the standard deviation of the noise. CNRs were averaged over two to three axial slices in which the tumors were clearly demarcated.
To determine whether the water-soluble progesterone-conjugated agents would increase the contrast-to-noise ratio (CNR) of PR(+) tumors relative to PR(−) tumors in vivo, athymic nude mice with PR(+) and PR(−) xenografted tumors were injected intraperitoneally with 1a, 2a, or 3a dissolved in DMSO and imaged at 2 and 6 h postinjection. Intraperitoneal injection was chosen over subcutaneous injection because it yielded more consistent results in previous studies, and the parent compound, ProGlo, has been more extensively studied for its biodistribution after intraperitoneal injection. (19) In addition, while these agents are water-soluble, they were dissolved in DMSO to compare back to previous in vivo imaging with the insoluble ProGlo and the control agent 4a.(19)

[5] = system: PR(+) T47D and PR(−) MDA-MB-231 xenografted tumors; conditions: previously reported (ref. 19); cited from earlier work
[6] = target: T1, progesterone receptor A ligand binding domain (amino acids 675-933) fused to GST (PR-LBD-GST) (Homo sapiens, UniProt P06401); assay: Receptor binding to nPR (fluorescence polarization, Example 17)
T1 construct: purchased Invitrogen
T1 sequence (P06401 675-933): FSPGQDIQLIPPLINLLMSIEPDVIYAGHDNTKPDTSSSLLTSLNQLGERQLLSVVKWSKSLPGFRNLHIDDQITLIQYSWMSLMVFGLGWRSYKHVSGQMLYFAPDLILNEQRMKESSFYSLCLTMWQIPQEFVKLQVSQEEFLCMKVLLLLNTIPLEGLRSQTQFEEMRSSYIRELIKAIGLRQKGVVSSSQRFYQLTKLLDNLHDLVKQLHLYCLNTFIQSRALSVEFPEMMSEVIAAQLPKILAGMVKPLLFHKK

[7] = taken from Caravan et al.; cited from earlier work

| tissue distribution of Gd(III) (percentage per gram of tissue) [1] | Compound | cellular Gd(III) uptake [2] | change in tumor CNR over preinjection levels [4] | CNR of PR(+) tumor compared to PR(−) tumor ([4]; 6 h postinjection) | also measured |
| --- | --- | --- | --- | --- | --- |
| mainly end up in the liver and kidney | CCCCCCN1CCN(CC(=O)[O-])CCN(CC(=O)[O-])CCN(CC(=O)[O-])CC1.[Gd+3] [hexyl-DO3A-Gd(III)] | – | – | – | – |
| – | {2,2′,2″-((10-((1-(5-(2-(10,13-Dimethyl-3-oxo-2,3,6,7,8,9,10,11,12,13,14,15,16,17-tetradecahydro-1H-cyclopenta[a]phenanthren-17-yl)-2-oxoethoxy)pentyl)-1H-1,2,3-triazol-4-yl)methyl)-1,4,7,10-tetraazacyclododecane-1,4,7-triyl)triacetate}gadolinium [Compound 2a] | time-dependent accumulation | slow increase in CNR over time | significantly higher CNR | PRE-mediated transcription (luciferase activity) [3]: lowest efficacy |
| mainly end up in the liver and kidney | DO3A-Gd(III) | – | – | – | tumor CNR after injection [5]: only minimal increases in CNR over time |
| – | {2,2′,2″-(10-(2-(((1-(5-(2-(10,13-Dimethyl-3-oxo-2,3,6,7,8,9,10,11,12,13,14,15,16,17-tetradecahydro-1H-cyclopenta[a]phenanthren-17-yl)-2-oxoethoxy)pentyl)-1H-1,2,3-triazol-4-yl)methyl)amino)-2-oxoethyl)-1,4,7,10-tetraazacyclododecane-1,4,7-triyl)triacetate}gadolinium [Compound 1a] | increased slightly after 1 h and then stabilized | several-fold increase in CNR; also recorded: increased CNR by 2 h, but CNR had decreased by 6 h | significantly higher CNR | RBA, fold less than that of progesterone [6]: about 100 fold; CNR of PR(+) tumor compared to PR(−) tumor ([4]; 2 h postinjection): significantly higher CNR; fold change in CNR in the PR(+) tumors, percent higher than with ProGlo ([4]; 2 h time point, compared to preinjection CNR): 16% |
| – | CC(O)CN1CCN(CC(=O)[O-])CCN(CC(=O)[O-])CCN(CC(=O)[O-])CC1.[Gd+3] (centres unmarked) [Prohance] | – | – | – | Relaxivity [7]: 3.7* mM^−1s^−1 |
